Source: ChEMBL document CHEMBL1128924, “Some benzenesulfonamido-substituted valerophenones that are selective antagonists for the 5-HT2C receptor” (Bioorg Med Chem Lett, 1996)

Experiments:
Format in all cases: cell-based
[1] = target: 5-hydroxytryptamine receptor 2B (Homo sapiens, UniProt P41595); test: Displacement of [3H]-5-5HT from human cloned 5-hydroxytryptamine 2B receptor expressed in CHO-K1 cells
[2] = target: T1, 5-hydroxytryptamine receptor 2C (Homo sapiens, UniProt P28335); test: Displacement of [3H]mesulergine from human cloned 5-hydroxytryptamine 2C receptor expressed in CHO-K1 cells
T1 sequence (P28335 whole entry): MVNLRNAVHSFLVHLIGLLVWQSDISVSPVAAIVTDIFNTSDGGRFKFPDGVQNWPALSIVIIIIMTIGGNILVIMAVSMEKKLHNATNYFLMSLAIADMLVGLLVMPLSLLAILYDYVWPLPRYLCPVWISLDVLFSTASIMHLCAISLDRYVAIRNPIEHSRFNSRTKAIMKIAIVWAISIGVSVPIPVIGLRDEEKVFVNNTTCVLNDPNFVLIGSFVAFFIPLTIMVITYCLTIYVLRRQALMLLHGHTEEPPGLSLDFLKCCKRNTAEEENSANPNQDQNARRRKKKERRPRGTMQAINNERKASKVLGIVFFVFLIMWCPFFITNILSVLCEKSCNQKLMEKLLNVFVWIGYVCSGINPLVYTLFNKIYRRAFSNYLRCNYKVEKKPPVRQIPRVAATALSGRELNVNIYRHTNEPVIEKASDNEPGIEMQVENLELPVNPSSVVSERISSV

[3] = target: T2, 5-hydroxytryptamine receptor 2A (Homo sapiens, UniProt P28223); test: Compound was evaluated for displacement of [3H]ketanserin from human cloned 5-hydroxytryptamine 2A receptor in transfected CHO-K1 cells
[4] = target: T2, 5-hydroxytryptamine receptor 2A; test: Displacement of [3H]-ketanserin from human cloned 5-hydroxytryptamine 2A receptor expressed in CHO-K1 cells.
[5] = target: T3, 5-hydroxytryptamine receptor 2C (Rattus norvegicus, UniProt P08909); test: Compound was evaluated for displacement of [3H]mesulergine from cloned rat 5-hydroxytryptamine 2C receptor in transfected CHO-K1 cells.
T3 sequence (P08909 whole entry): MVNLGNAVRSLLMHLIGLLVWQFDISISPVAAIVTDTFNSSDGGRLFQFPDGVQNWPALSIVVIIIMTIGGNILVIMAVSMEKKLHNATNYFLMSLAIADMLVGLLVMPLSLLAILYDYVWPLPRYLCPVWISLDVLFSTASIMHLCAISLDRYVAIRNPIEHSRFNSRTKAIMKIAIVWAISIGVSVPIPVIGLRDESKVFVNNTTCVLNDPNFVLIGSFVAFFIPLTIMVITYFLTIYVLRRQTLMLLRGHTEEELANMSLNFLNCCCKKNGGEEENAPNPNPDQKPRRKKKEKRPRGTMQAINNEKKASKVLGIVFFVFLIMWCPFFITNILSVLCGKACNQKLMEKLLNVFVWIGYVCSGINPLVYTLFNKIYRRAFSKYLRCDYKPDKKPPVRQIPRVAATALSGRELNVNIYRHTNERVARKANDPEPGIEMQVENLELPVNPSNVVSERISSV

[6] = target: 5-hydroxytryptamine receptor 2A (Rattus norvegicus, UniProt P14842); test: Compound was evaluated for displacement of [3H]ketanserin from cloned rat 5-hydroxytryptamine 2A receptor in transfected CHO-K1 cells.
Sequence of 5-hydroxytryptamine receptor 2A (Rattus norvegicus, UniProt P14842) (P14842 whole entry, looked up): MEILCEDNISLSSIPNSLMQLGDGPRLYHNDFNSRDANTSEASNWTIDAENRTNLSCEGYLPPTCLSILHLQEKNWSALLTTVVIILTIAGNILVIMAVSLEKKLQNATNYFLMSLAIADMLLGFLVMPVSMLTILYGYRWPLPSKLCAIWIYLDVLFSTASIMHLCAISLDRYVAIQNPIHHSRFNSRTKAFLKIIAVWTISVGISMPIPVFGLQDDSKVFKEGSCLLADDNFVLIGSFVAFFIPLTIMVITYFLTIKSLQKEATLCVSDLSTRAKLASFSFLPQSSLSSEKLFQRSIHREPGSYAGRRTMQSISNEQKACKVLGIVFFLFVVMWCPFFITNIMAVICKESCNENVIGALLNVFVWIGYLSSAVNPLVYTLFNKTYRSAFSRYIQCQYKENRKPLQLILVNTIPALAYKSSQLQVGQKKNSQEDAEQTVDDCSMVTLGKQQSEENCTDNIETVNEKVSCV

T2 sequence (P28223 whole entry): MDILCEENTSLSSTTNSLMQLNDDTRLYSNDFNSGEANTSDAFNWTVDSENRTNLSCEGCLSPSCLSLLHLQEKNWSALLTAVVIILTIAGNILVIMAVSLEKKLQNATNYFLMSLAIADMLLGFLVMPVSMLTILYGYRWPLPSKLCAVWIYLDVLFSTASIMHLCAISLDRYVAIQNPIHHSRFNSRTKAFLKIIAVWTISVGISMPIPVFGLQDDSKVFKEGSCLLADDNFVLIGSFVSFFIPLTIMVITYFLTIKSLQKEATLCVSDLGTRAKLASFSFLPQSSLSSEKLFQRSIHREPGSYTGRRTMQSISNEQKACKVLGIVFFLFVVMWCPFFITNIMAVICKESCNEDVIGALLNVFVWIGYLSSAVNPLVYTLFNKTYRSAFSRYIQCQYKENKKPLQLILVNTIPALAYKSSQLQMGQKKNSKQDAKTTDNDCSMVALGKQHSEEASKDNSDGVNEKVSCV
Sequence of 5-hydroxytryptamine receptor 2B (P41595 whole entry): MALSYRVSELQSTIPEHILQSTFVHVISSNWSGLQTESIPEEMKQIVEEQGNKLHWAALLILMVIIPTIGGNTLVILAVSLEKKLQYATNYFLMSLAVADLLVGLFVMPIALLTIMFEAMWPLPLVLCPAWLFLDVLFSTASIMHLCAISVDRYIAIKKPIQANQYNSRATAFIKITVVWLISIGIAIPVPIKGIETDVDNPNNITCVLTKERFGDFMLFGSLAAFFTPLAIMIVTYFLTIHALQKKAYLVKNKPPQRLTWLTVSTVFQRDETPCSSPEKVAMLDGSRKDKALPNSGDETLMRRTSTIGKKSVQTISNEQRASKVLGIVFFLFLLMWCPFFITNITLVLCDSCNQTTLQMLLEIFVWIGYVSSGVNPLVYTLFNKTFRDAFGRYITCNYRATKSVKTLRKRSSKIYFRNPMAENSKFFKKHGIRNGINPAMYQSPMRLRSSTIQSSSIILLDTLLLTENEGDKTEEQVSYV

Row | Ki [1] | Ki [2] | Ki [3] | Ki [4] | Ki [5] | Ki [6] | SMILES
1 | 126 nM | 10 nM | – | > 10000 nM | – | – | COc1cc(OC)c(C(=O)CCCCN2CCC3(CC2)NC(=O)NC3=O)cc1NS(=O)(=O)c1ccc(F)cc1
2 | 100 nM | 10 nM | 398 nM | – | – | – | COc1cc(OC)c(-c2ccccc2)cc1C(=O)CCCCN1CCC2(CC1)NC(=O)NC2=O
3 | 200 nM | 50.1 nM | – | 2000 nM | – | – | COc1cc(OC)c(C(=O)CCCCN2CCC3(CC2)NC(=O)NC3=O)cc1NS(=O)(=O)c1cccc(Cl)c1
4 | – | – | – | – | 2 nM | 7.94 nM | COc1ccc(NS(=O)(=O)c2ccc(Cl)cc2)cc1C(=O)CCCCN1CCC2(CC1)NC(=O)NC2=O
5 | 251 nM | 39.8 nM | – | > 10000 nM | – | – | COc1cc(OC)c(C(=O)CCCCN2CCC3(CC2)NC(=O)NC3=O)cc1NS(=O)(=O)c1ccc(C(C)=O)cc1
6 | – | – | – | – | 6.31 nM | 20 nM | COc1ccc(NS(=O)(=O)c2ccccc2)cc1C(=O)CCCCN1CCC2(CC1)NC(=O)NC2=O
7 | 316 nM | 10 nM | – | 2510 nM | – | – | COc1cc(OC)c(C(=O)CCCCN2CCC3(CC2)NC(=O)NC3=O)cc1NS(=O)(=O)c1ccc(C)cc1
8 | 398 nM | 7.94 nM | – | 794 nM | – | – | COc1cc(OC)c(C(=O)CCCCN2CCC3(CC2)NC(=O)NC3=O)cc1NS(=O)(=O)c1ccc(C#N)cc1
9 | 50.1 nM | 3.98 nM | 12.6 nM | – | – | – | COc1ccc(Cl)cc1C(=O)CCCCN1CCC2(CC1)NC(=O)NC2=O
10 | – | – | – | – | 39.8 nM | 126 nM | COc1cc(OC)c(C(=O)CCCCN2CCC3(CC2)NC(=O)NC3=O)cc1N
11 | 1260 nM | 20 nM | – | 2000 nM | – | – | COc1ccc(S(=O)(=O)Nc2cc(C(=O)CCCCN3CCC4(CC3)NC(=O)NC4=O)c(OC)cc2OC)cc1
12 | 398 nM | 1.58 nM | – | 1000 nM | – | – | COc1cc(OC)c(C(=O)CCCCN2CCC3(CC2)NC(=O)NC3=O)cc1NS(=O)(=O)c1ccc(OC(F)(F)F)cc1
13 | – | – | – | – | 0.631 nM | 5.01 nM | COc1cc(OC)c(C(=O)CCCCN2CCC3(CC2)NC(=O)NC3=O)cc1Cl
14 | 1260 nM | 1.58 nM | – | 1260 nM | – | – | COc1cc(OC)c(C(=O)CCCCN2CCC3(CC2)NC(=O)NC3=O)cc1NS(=O)(=O)c1ccc(C(C)C)cc1
15 | 10 nM | 0.2 nM | 1 nM | – | – | – | COc1ccc(-c2ccccc2)cc1C(=O)CCCCN1CCC2(CC1)NC(=O)NC2=O

Continued, compound first:

Row | SMILES | Ki [1] | Ki [2] | Ki [3] | Ki [4] | Ki [5] | Ki [6]
16 | COc1ccc(OC)c(C(=O)CCCCN2CCC3(CC2)NC(=O)NC3=O)c1 | 126 nM | 3.16 nM | 20 nM | – | – | –
17 | COc1cc(OC)c(C(=O)CCCCN2CCC3(CC2)NC(=O)NC3=O)cc1NS(=O)(=O)c1ccccc1Cl | 398 nM | 398 nM | – | > 10000 nM | – | –
18 | COc1cc(OC)c(C(=O)CCCCN2CCC3(CC2)NC(=O)NC3=O)cc1NS(=O)(=O)c1cccc(C(F)(F)F)c1 | – | – | – | – | 100 nM | 794 nM
19 | COc1cc(OC)c(C(=O)CCCCN2CCC3(CC2)NC(=O)NC3=O)cc1NS(=O)(=O)c1ccccc1 | 631 nM | 31.6 nM | – | 3160 nM | – | –
20 | COc1ccc(Oc2ccccc2)cc1C(=O)CCCCN1CCC2(CC1)NC(=O)NC2=O | – | – | – | – | 3.16 nM | 7.94 nM
21 | COc1cc(OC)c(C(=O)CCCCN2CCC3(CC2)NC(=O)NC3=O)cc1NS(=O)(=O)c1ccc(Cl)cc1 | 79.4 nM | 5.01 nM | – | 794 nM | – | –
22 | COc1cc(OC)c(C(=O)CCCCN2CCC3(CC2)NC(=O)NC3=O)cc1NS(=O)(=O)c1ccc(S(N)(=O)=O)cc1 | 3160 nM | 79.4 nM | – | > 10000 nM | – | –
23 | COc1cc(Cl)ccc1C(=O)CCCCN1CCC2(CC1)NC(=O)NC2=O | 200 nM | 6.31 nM | 126 nM | – | – | –
24 | COc1ccccc1C(=O)CCCCN1CCC2(CC1)NC(=O)NC2=O | > 10000 nM | > 10000 nM | > 10000 nM | – | – | –
25 | COc1cc(Cl)c(Cl)cc1C(=O)CCCCN1CCC2(CC1)NC(=O)NC2=O | 6.31 nM | 0.251 nM | 6.31 nM | – | – | –
26 | COc1cc(OC)c(C(=O)CCCCN2CCC3(CC2)NC(=O)NC3=O)cc1NS(=O)(=O)c1ccc(NC(C)=O)cc1 | 316 nM | 39.8 nM | – | > 10000 nM | – | –
27 | CN1C[C@@H](NS(=O)(=O)N(C)C)C[C@@H]2c3cccc4c3c(cn4C)C[C@H]21 [MESULERGINE] | 2 nM | – | – | 20 nM | – | –
28 | COc1cc(OC)c(C(=O)CCCCN2CCC3(CC2)NC(=O)NC3=O)cc1NS(=O)(=O)c1ccc(C(F)(F)F)cc1 [RS-102,221] | 316 nM | 2 nM | – | 631 nM | – | –
29 | O=C(CCCN1CCC2(CC1)C(=O)NCN2c1ccccc1)c1ccc(F)cc1 [SPIPERONE] | 1260 nM | 631 nM | – | – | – | –
